According to patent US20250129052A1, “PYRAZINE COMPOUNDS FOR THE CONTROL OF INVERTEBRATE PESTS” (priority 2021, published 2025):

Tests used:
Assay type in all cases: in vivo
[1] = tested on: Southern Armyworm (Spodoptera eridania), 2nd Instar Larvae; experiment: B.4 Southern armyworm, 2nd instar larvae, sprayed lima bean plants; details: 96 h, 4 days after treatment, foliar spray, read-out: mortality in comparison with untreated controls
Procedure: B.4. Southern Armyworm (Spodoptera eridania), 2nd Instar Larvae
The active compounds were formulated by a Tecan liquid handler in 100% cyclohexanone as a 10,000-ppm solution supplied in tubes. The 10,000-ppm solution was serially diluted in 100% cyclohexanone to make interim solutions. These served as stock solutions for which final dilutions were made by the Tecan in 50% acetone:50% water (v/v) into 10 or 20 ml glass vials. A non-ionic surfactant (Kinetic@) was included in the solution at a volume of 0.01% (v/v). The vials were then inserted into an automated electrostatic sprayer equipped with an atomizing nozzle for application to plants/insects. Lima bean plants (variety Sieva) were grown 2 plants to a pot and selected for treatment at the 1st true leaf stage. Test solutions were sprayed onto the foliage by an automated electrostatic plant sprayer equipped with an atomizing spray nozzle. The plants were dried in the sprayer fume hood and then removed from the sprayer. Each pot was placed into perforated plastic bags with a zip closure. Ten to 11 armyworm larvae were placed into the bag and the bags zipped closed. Test plants were maintained in a growth room at about 25° C. and about 20-40% relative humidity for 4 days, avoiding direct exposure to fluorescent light (14:10 light:dark photoperiod) to prevent trapping of heat inside the bags. Mortality and reduced feeding were assessed 4 days after treatment, compared to untreated control plants.

[2] = tested on: green peach aphid (Myzus persicae); experiment: B.1 Green peach aphid, systemic, artificial diet in microtiter plates; details: for mortality at 2500 ppm: 72 h, 3 days, aphid diet, read-out: mortality in comparison with untreated controls; for mortality at 9.9 ppm / mortality at 7.9 ppm: read-out: % mortality in comparison to untreated controls, B.1
Excerpt: B.1 Green Peach Aphid (Myzus persicae)
For evaluating control of green peach aphid (Myzus persicae) through systemic means, the test unit consisted of 96-well-microtiter plates containing liquid artificial diet under an artificial mem brane.
The compounds were formulated using a solution containing 75% v/v water and 25% v/v DMSO. Different concentrations of formulated compounds were pipetted into the aphid diet, using a custom built pipetter, at two replications.
After application, 5-8 adult aphids were placed on the artificial membrane inside the microtiter plate wells. The aphids were then allowed to suck on the treated aphid diet and incubated at about 23±1° C. and about 50±5% relative humidity for 3 days. Aphid mortality and fecundity was then visually assessed.

[3] = tested on: boll weevil (Anthonomus grandis); experiment: B.3 Boll weevil, insect diet with eggs in microtiter plates; details: for mortality at 2500 ppm: 120 h, read-out: mortality in comparison with untreated controls; for mortality at 7.9 ppm: read-out: % mortality in comparison to untreated controls, B.3
Procedure: B.3 Boll Weevil (Anthonomus grandis)
For evaluating control of boll weevil (Anthonomus grandis), the test unit consisted of 96-well-microtiter plates containing an insect diet and 5-10 A. grandis eggs.
The compounds were formulated using a solution containing 75% v/v water and 25% v/v DMSO. Different concentrations of formulated compounds were sprayed onto the insect diet at 5 μl, using a custom-built micro atomizer, at two replications.
After application, microtiter plates were incubated at about 25±1° C. and about 75±5% relative humidity for 5 days. Egg and larval mortality was then visually assessed.

[4] = tested on: yellow fever mosquito (Aedes aegypti); experiment: whole plant or invertebrate; details: 48 h, 2 days, larval mortality, read-out: mortality in comparison with untreated controls
Procedure: B.5 Yellow Fever Mosquito (Aedes aegypti)
For evaluating control of yellow fever mosquito (Aedes aegypti) the test unit consisted of 96-well-microtiter plates containing 200 μl of tap water per well and 5-15 freshly hatched A. aegypti larvae.
The active compounds were formulated using a solution containing 75% (v/v) water and 25% (v/v) DMSO. Different concentrations of formulated compounds or mixtures were sprayed onto the insect diet at 2.5 μl, using a custom-built micro atomizer, at two replications.
After application, microtiter plates were incubated at 28±1° C., 80±5% RH for 2 days. Larval mortality was then visually assessed.

[5] = tested on: tobacco budworm (Heliothis virescens); experiment: B.2 Tobacco budworm, insect diet with eggs in microtiter plates; details: 120 h, 5 days, egg and larval mortality, read-out: mortality in comparison with untreated controls
Procedure: B.2 Tobacco Budworm (Heliothis virescens)
For evaluating control of tobacco budworm (Heliothis virescens), the test unit consisted of 96-well-microtiter plates containing an insect diet and 15-25 H. virescens eggs.
The compounds were formulated using a solution containing 75% v/v water and 25% v/v DMSO. Different concentrations of formulated compounds were sprayed onto the insect diet at 10 μl, using a custom-built micro atomizer, at two replications.
After application, microtiter plates were incubated at about 28±1° C. and about 80±5% relative humidity for 5 days. Egg and larval mortality was then visually assessed.

[6] = tested on: Orchid thrips; Dichromothrips corbetti; experiment: B.6 Orchid thrips, floral-immersion technique; details: 300 ppm; 72 hours after treatment
Procedure: B.6 ANAPCO (Orchid thrips; Dichromothrips corbetti)
Dichromothrips corbetti adults used for bioassay are obtained from a colony maintained continuously under laboratory conditions. For testing purposes, the test compound is diluted in a 1:1 mixture of acetone:water (vol:vol), plus Kinetic at a rate of 0.01% v/v.
Thrips potency of each compound is evaluated by using a floral-immersion technique. Each orchid petal is dipped into treatment solution and allowed to dry in Petri dishes. Treated petals are placed into individual re-sealable plastic along with about 20 adult thrips. All test arenas are held under dark condition and a temperature of about 28° C. for duration of the assay. The percent mortality is recorded 72 hours after treatment.

[7] = tested on: Black Bean Aphid; Aphis craccivora; experiment: B.7 Black bean aphid, sprayed potted bean plants; details: 300 ppm; after 72 hours
Procedure: B.7 APHICR (Black Bean Aphid; Aphis craccivora)
The active compound is dissolved at the desired concentration in a mixture of 1:1 (vol:vol) distilled water:acetone. Surfactant (Kinetic) is added at a rate of 0.01% (vol/vol). The test solution is prepared at the day of use.
Potted (Kord traditional square pots Size 3″ and 2.5″ in depth) bush beans are cleaned with the apical leaves removed using pointed forceps, leaving only the cotyledon leaves. Plants are inoculated with about 30 mixed-stage aphid colony 24 hours before spraying. Potted bean plants are sprayed with the test solutions using a DeVilbiss hand atomizer (20-30 psi). Treated plants are allowed to air-dry in the laboratory for about an hour before placing them inside the holding room maintained at 27° C., 50% RH and […] conditions. Stem of the treated bean plants are inserted in the slit of cut circle filter paper to catch the falling dead aphids. Assessment of population reduction (% mortality) is done after 72 hours.

SMILES | mortality at 300 ppm [1] | mortality at 2500 ppm [2] | mortality at 2500 ppm [3] | mortality at 2500 ppm [4] | mortality at 2500 ppm [5] | mortality at 9.9 ppm [2] | % mortality in comparison to untreated controls, B.6 [6] | % mortality in comparison to untreated controls, B.7 [7] | mortality at 7.9 ppm [2] | mortality at 7.9 ppm [3]
CC(NC(=O)c1cc(Br)cc(C(F)(F)F)c1)c1nccnc1-c1ncn(CC(F)(F)F)n1 (centres unmarked) [Compound I1-1, 3-bromo-N-[1-[3-[1-(2,2,2-trifluoroethyl)-1,2,4-triazol-3-yl]pyrazin-2-yl]ethyl]-5-(trifluoromethyl)benzamide] | ≥ 75% | ≥ 75% | ≥ 75% | ≥ 75% | ≥ 75% |  |  |  |  | 
COc1ccc(Cn2cnc(-c3nccnc3C(C)NC(=O)c3cc(Cl)cc(C(F)(F)F)c3)n2)cc1 (centres unmarked) [Compound I1-4, 3-chloro-N-[1-[3-[1-[(4-methoxyphenyl)methyl]-1,2,4-triazol-3-yl]pyrazin-2-yl]ethyl]-5-(trifluoromethyl)benzamide] | ≥ 75% |  | ≥ 75% |  |  |  |  |  |  | 
CC(c1nccnc1-c1ncn(C(C)C)n1)N(C)C(=O)c1cc(Cl)cc(S(C)(=O)=O)c1 (centres unmarked) [Compound I1-5, 3-chloro-N-[1-[3-(1-isopropyl-1,2,4-triazol-3-yl)pyrazin-2-yl]ethyl]-N-methyl-5-methylsulfonyl-benzamide] | ≥ 75% | ≥ 75% | ≥ 75% | ≥ 75% |  |  |  |  |  | 
CC(NC(=O)c1cc(Cl)cc(S(C)(=O)=O)c1)c1nccnc1-c1ncn(C(C)C)n1 (centres unmarked) [Compound I1-7, 3-chloro-N-[1-[3-(1-isopropyl-1,2,4-triazol-3-yl)pyrazin-2-yl]ethyl]-5-methylsulfonyl-benzamide] | ≥ 75% | ≥ 75% | ≥ 75% | ≥ 75% |  |  |  |  |  | 
CC(NC(=O)c1cc(Cl)cc(C(F)(F)F)c1)c1nccnc1-c1ncn(CC=C(Cl)Cl)n1 (centres unmarked) [Compound I1-11, 3-chloro-N-[1-[3-[1-(3,3-dichloroallyl)-1,2,4-triazol-3-yl]pyrazin-2-yl]ethyl]-5-(trifluoromethyl)benzamide] |  |  | ≥ 75% | ≥ 75% | ≥ 75% |  |  |  |  | 
CC(NC(=O)c1cc(C(F)(F)F)cc(C(F)(F)F)c1)c1nccnc1-c1ncn(C)n1 (centres unmarked) [Compound I1-12] | ≥ 75% | ≥ 75% | ≥ 75% | ≥ 75% | ≥ 75% | 100% | 100% | 100% |  | 
CC(NC(=O)c1cc(C(F)(F)F)cc(C(F)(F)F)c1)c1nccnc1-c1ncn(CC(F)(F)F)n1 (centres unmarked) [Compound I1-13] | ≥ 75% | ≥ 75% | ≥ 75% | ≥ 75% | ≥ 75% |  | 100% |  | 100% | 100%
CC(NC(=O)c1cc(Cl)cc(C(F)(F)F)c1)c1nccnc1-c1ncn(CC2CC2(Cl)Cl)n1 (centres unmarked) [Compound I1-14, 3-chloro-N-[1-[3-[1-[(2,2-dichlorocyclopropyl)methyl]-1,2,4-triazol-3-yl]pyrazin-2-yl]ethyl]-5-(trifluoromethyl)benzamide] | ≥ 75% | ≥ 75% | ≥ 75% | ≥ 75% | ≥ 75% |  |  |  |  | 
CC(NC(=O)c1cc(Cl)nc(Cl)c1)c1nccnc1-c1ncn(-c2ccccc2)n1 (centres unmarked) [Compound I2-1, 2,6-dichloro-N-[1-[3-(1-phenyl-1,2,4-triazol-3-yl)pyrazin-2-yl]ethyl]pyridine-4-carboxamide] |  | ≥ 75% | ≥ 75% | ≥ 75% |  |  |  |  |  | 
Cc1cnn(-c2nccnc2C(C)NC(=O)c2cc(C(F)(F)F)cc(C(F)(F)F)c2)n1 (centres unmarked) [WO 2021/037614 P1, reference compound] |  |  |  |  |  | 0% | 0% | 0% |  | 
CC(NC(=O)c1cc(C(F)(F)F)cc(C(F)(F)F)c1)c1nccnc1-n1cncn1 (centres unmarked) [WO 2021/037614 P46, reference compound] |  |  |  |  |  | 25% | 0% | 50% | 0% | 50%
